Experimental data reported in publication PMC5341858, “Molecular regulation of apoptotic machinery and lipid metabolism by mTORC1/mTORC2 dual inhibitors in preclinical models of HER2+/PIK3CAmut breast cancer” (Oncotarget, 2016).

How the values were obtained:
Experiment in all cases: KINOMEscan binding assay
[1] = target: T1, ABL1 (T315I)- phosphorylated (Homo sapiens, UniProt P00519, T315I); details: 1000 nM, percent control relative to vehicle
T1 construct: purchased DiscoveRx KINOMEscan
Text: (§1) IC50 values were generated using Graphpad PRISM 5 software.

[2] = target: T2, ABL1-phosphorylated (Homo sapiens, UniProt P00519); details: 1000 nM, percent control relative to vehicle
T2 construct: purchased DiscoveRx KINOMEscan
Text: as §1

[3] = target: T3, AKT1 (Homo sapiens, UniProt P31749); details: 1000 nM, percent control relative to vehicle
T3 construct: purchased DiscoveRx KINOMEscan
Text: as §1

[4] = target: T4, ALK (Homo sapiens, UniProt Q9UM73); details: 1000 nM, percent control relative to vehicle
T4 construct: purchased DiscoveRx KINOMEscan
Text: as §1

[5] = target: T5, AURKA (Homo sapiens, UniProt O14965); details: 1000 nM, percent control relative to vehicle
T5 construct: purchased DiscoveRx KINOMEscan
Text: as §1

[6] = target: T6, AURKB (Homo sapiens, UniProt Q96GD4); details: 1000 nM, percent control relative to vehicle
T6 construct: purchased DiscoveRx KINOMEscan
Text: as §1

[7] = target: T7, BRAF (Homo sapiens, UniProt P15056); details: 1000 nM, percent control relative to vehicle
T7 construct: purchased DiscoveRx KINOMEscan
Text: as §1

[8] = target: T8, CDK11 (Homo sapiens, UniProt Q9BWU1); details: 1000 nM, percent control relative to vehicle
T8 construct: purchased DiscoveRx KINOMEscan
Text: as §1

[9] = target: T9, CDK2 (Homo sapiens, UniProt P24941); details: 1000 nM, percent control relative to vehicle
T9 construct: purchased DiscoveRx KINOMEscan
Text: as §1

[10] = target: T10, CDK3 (Homo sapiens, UniProt Q00526); details: 1000 nM, percent control relative to vehicle
T10 construct: purchased DiscoveRx KINOMEscan
T10 sequence (Q00526 whole entry): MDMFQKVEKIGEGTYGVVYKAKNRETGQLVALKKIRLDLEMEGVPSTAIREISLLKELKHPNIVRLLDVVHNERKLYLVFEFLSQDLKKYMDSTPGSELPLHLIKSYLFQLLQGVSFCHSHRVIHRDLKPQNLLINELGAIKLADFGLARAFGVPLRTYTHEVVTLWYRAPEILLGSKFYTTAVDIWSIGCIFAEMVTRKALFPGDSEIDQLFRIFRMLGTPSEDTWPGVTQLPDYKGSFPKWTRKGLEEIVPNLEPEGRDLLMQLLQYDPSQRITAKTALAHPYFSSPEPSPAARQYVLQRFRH
Text: as §1

[11] = target: T11, CHEK1 (Homo sapiens, UniProt O14757); details: 1000 nM, percent control relative to vehicle
T11 construct: purchased DiscoveRx KINOMEscan
Text: as §1

[12] = target: T12, CSNK1D (Homo sapiens, UniProt P48730); details: 1000 nM, percent control relative to vehicle
T12 construct: purchased DiscoveRx KINOMEscan
Text: as §1

[13] = target: T13, CSNK1G2 (Homo sapiens, UniProt P78368); details: 1000 nM, percent control relative to vehicle
T13 construct: purchased DiscoveRx KINOMEscan
Text: as §1

[14] = target: T14, DYRK1B (Homo sapiens, UniProt Q9Y463); details: 1000 nM, percent control relative to vehicle
T14 construct: purchased DiscoveRx KINOMEscan
Text: as §1

[15] = target: T15, EGFR (Homo sapiens, UniProt P00533); details: 1000 nM, percent control relative to vehicle
T15 construct: purchased DiscoveRx KINOMEscan
Text: as §1

[16] = target: T16, EGFR (L858R) (Homo sapiens, UniProt P00533, L858R); details: 1000 nM, percent control relative to vehicle
T16 construct: purchased DiscoveRx KINOMEscan
Text: as §1

[17] = target: T17, ERBB2 (Homo sapiens, UniProt P04626); details: 1000 nM, percent control relative to vehicle
T17 construct: purchased DiscoveRx KINOMEscan
Text: as §1

[18] = target: T18, FAK (Homo sapiens, UniProt Q05397); details: 1000 nM, percent control relative to vehicle
T18 construct: purchased DiscoveRx KINOMEscan
T18 sequence (Q05397 whole entry): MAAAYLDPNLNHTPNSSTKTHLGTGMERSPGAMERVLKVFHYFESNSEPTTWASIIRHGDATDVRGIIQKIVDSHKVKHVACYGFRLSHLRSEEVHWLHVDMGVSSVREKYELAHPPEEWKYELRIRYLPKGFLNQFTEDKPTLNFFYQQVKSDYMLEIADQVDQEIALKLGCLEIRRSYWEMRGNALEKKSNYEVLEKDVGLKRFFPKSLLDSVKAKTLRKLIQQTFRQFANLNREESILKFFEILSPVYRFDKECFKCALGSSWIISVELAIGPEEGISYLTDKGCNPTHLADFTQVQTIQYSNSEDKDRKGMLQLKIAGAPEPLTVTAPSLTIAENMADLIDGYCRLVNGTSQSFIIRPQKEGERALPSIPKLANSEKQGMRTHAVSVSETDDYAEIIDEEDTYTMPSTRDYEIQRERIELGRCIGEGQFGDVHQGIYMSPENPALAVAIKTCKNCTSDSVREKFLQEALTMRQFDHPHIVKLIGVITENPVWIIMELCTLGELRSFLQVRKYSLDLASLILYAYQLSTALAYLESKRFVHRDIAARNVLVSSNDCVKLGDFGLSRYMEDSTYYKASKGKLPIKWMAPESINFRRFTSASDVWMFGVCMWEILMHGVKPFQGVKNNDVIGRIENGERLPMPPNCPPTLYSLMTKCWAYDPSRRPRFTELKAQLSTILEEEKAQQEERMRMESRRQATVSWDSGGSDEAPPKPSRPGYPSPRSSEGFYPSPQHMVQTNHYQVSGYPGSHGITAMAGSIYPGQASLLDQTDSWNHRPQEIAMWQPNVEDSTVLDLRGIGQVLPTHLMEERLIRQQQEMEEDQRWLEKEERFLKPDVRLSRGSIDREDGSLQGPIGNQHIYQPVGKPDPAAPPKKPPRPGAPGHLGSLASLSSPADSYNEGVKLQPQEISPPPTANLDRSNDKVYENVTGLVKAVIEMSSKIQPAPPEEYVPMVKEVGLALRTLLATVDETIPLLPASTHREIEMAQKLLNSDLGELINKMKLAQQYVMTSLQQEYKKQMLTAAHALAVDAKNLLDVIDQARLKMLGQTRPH
Text: as §1

[19] = target: T19, FGFR3 (Homo sapiens, UniProt P22607); details: 1000 nM, percent control relative to vehicle
T19 construct: purchased DiscoveRx KINOMEscan
Text: as §1

[20] = target: T20, FLT3 (Homo sapiens, UniProt P36888); details: 1000 nM, percent control relative to vehicle
T20 construct: purchased DiscoveRx KINOMEscan
Text: as §1

[21] = target: T21, GSK3B (Homo sapiens, UniProt P49841); details: 1000 nM, percent control relative to vehicle
T21 construct: purchased DiscoveRx KINOMEscan
Text: as §1

[22] = target: T22, IGF1R (Homo sapiens, UniProt P08069); details: 1000 nM, percent control relative to vehicle
T22 construct: purchased DiscoveRx KINOMEscan
Text: as §1

[23] = target: T23, IKK-beta (Homo sapiens, UniProt O14920); details: 1000 nM, percent control relative to vehicle
T23 construct: purchased DiscoveRx KINOMEscan
Text: as §1

[24] = target: T24, JNK1 (Homo sapiens, UniProt P45983); details: 1000 nM, percent control relative to vehicle
T24 construct: purchased DiscoveRx KINOMEscan
Text: as §1

[25] = target: T25, LKB1 (Homo sapiens, UniProt Q15831); details: 1000 nM, percent control relative to vehicle
T25 construct: purchased DiscoveRx KINOMEscan
T25 sequence (Q15831 whole entry): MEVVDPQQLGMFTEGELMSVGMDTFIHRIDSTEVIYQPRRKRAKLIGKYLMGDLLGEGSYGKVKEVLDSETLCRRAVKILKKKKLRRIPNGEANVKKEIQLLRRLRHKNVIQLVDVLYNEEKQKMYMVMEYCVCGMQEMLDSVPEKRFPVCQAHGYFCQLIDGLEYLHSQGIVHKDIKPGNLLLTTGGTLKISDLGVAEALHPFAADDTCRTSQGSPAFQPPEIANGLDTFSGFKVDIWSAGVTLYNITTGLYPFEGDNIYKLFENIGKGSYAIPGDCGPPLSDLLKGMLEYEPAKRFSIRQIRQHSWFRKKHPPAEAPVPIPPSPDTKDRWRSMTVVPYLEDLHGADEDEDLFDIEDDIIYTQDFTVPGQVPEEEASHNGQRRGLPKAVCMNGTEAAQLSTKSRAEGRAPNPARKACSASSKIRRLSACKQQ
Text: as §1

[26] = target: T26, MEK1 (Homo sapiens, UniProt Q02750); details: 1000 nM, percent control relative to vehicle
T26 construct: purchased DiscoveRx KINOMEscan
Text: as §1

[27] = target: T27, MKNK1 (Homo sapiens, UniProt Q9BUB5); details: 1000 nM, percent control relative to vehicle
T27 construct: purchased DiscoveRx KINOMEscan
Text: as §1

[28] = target: T28, MKNK2 (Homo sapiens, UniProt Q9HBH9); details: 1000 nM, percent control relative to vehicle
T28 construct: purchased DiscoveRx KINOMEscan
Text: as §1

[29] = target: T29, MLK1 (Homo sapiens, UniProt P80192); details: 1000 nM, percent control relative to vehicle
T29 construct: purchased DiscoveRx KINOMEscan
Text: as §1

[30] = target: T30, PAK1 (Homo sapiens, UniProt Q13153); details: 1000 nM, percent control relative to vehicle
T30 construct: purchased DiscoveRx KINOMEscan
Text: as §1

[31] = target: PIK3CA (Homo sapiens, UniProt P42336)
Sequence of PIK3CA (P42336 whole entry): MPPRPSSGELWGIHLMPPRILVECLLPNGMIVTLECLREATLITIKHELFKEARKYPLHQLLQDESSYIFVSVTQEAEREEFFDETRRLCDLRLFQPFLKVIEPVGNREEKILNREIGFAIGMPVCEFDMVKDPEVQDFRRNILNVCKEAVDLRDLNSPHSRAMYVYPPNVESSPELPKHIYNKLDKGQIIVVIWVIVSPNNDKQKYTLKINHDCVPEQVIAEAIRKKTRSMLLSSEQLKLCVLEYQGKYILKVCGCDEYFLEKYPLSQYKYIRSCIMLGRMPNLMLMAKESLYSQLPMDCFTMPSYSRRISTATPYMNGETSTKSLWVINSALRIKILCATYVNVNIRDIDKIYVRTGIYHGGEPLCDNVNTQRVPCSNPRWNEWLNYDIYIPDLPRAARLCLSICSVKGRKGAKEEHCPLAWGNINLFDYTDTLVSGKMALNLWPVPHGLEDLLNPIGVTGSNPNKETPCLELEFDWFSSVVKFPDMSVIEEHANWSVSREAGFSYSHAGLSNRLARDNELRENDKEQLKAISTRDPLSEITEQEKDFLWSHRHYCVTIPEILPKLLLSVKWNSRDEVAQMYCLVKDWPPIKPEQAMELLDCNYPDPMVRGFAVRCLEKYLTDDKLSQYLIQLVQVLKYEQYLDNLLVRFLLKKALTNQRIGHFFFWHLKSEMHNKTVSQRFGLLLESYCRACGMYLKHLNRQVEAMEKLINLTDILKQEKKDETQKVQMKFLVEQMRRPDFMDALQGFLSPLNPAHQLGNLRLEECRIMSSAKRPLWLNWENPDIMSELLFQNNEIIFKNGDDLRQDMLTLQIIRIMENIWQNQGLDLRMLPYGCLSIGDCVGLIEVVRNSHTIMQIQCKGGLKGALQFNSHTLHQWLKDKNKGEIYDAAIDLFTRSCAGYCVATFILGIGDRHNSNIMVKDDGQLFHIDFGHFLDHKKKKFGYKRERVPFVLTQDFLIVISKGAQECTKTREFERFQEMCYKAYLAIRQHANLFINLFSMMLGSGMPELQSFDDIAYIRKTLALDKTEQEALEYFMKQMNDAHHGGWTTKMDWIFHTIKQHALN
Text: as §1

[32] = target: PIK3CG (Homo sapiens, UniProt P48736)
Sequence of PIK3CG (P48736 whole entry): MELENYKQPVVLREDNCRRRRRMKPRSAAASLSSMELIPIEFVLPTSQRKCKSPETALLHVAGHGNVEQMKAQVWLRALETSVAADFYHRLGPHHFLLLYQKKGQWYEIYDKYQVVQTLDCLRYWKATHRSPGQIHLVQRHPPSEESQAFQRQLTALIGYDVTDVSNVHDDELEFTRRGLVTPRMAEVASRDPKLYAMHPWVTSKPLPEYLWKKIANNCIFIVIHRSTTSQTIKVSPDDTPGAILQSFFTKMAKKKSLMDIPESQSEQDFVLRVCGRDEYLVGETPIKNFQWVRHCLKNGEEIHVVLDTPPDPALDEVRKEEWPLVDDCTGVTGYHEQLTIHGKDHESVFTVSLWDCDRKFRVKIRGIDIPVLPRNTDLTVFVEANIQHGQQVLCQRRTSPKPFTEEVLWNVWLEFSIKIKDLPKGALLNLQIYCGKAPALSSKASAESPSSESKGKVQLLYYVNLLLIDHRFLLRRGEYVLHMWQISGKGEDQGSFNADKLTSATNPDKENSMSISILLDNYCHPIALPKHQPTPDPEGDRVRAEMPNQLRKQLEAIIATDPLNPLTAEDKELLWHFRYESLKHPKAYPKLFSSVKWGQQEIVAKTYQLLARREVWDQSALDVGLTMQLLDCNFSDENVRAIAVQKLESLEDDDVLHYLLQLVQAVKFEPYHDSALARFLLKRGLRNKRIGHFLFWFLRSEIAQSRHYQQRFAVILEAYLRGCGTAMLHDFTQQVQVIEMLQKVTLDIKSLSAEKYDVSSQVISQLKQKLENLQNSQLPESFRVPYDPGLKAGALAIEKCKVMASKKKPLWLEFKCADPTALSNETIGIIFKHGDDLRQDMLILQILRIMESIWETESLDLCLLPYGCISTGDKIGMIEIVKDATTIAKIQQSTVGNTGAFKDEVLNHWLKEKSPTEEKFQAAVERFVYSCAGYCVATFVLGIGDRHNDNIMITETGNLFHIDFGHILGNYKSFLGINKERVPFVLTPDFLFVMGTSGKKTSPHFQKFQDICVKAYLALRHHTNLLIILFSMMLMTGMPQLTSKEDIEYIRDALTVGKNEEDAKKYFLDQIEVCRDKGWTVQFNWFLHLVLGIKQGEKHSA
Text: as §1

[33] = target: T31, PIM2 (Homo sapiens, UniProt Q9P1W9); details: 1000 nM, percent control relative to vehicle
T31 construct: purchased DiscoveRx KINOMEscan
Text: as §1

[34] = target: T32, PIM3 (Homo sapiens, UniProt Q86V86); details: 1000 nM, percent control relative to vehicle
T32 construct: purchased DiscoveRx KINOMEscan
Text: as §1

[35] = target: T33, PLK3 (Homo sapiens, UniProt Q9H4B4); details: 1000 nM, percent control relative to vehicle
T33 construct: purchased DiscoveRx KINOMEscan
Text: as §1

[36] = target: T34, PRKCE (Homo sapiens, UniProt Q02156); details: 1000 nM, percent control relative to vehicle
T34 construct: purchased DiscoveRx KINOMEscan
Text: as §1

[37] = target: T35, RAF1 (Homo sapiens, UniProt P04049); details: 1000 nM, percent control relative to vehicle
T35 construct: purchased DiscoveRx KINOMEscan
Text: as §1

[38] = target: T36, RET (Homo sapiens, UniProt P07949); details: 1000 nM, percent control relative to vehicle
T36 construct: purchased DiscoveRx KINOMEscan
Text: as §1

[39] = target: T37, RIOK2 (Homo sapiens, UniProt Q9BVS4); details: 1000 nM, percent control relative to vehicle
T37 construct: purchased DiscoveRx KINOMEscan
Text: as §1

[40] = target: T38, RSK2 (Kin.Dom.1-N- terminal) (Homo sapiens, UniProt P51812); details: 1000 nM, percent control relative to vehicle
T38 construct: RSK2 (Kin.Dom.1-N- terminal); purchased DiscoveRx KINOMEscan
Text: as §1

[41] = target: T39, SRC (Homo sapiens, UniProt P12931); details: 1000 nM, percent control relative to vehicle
T39 construct: purchased DiscoveRx KINOMEscan
Text: as §1

[42] = target: T40, SRPK3 (Homo sapiens, UniProt Q9UPE1); details: 1000 nM, percent control relative to vehicle
T40 construct: purchased DiscoveRx KINOMEscan
T40 sequence (Q9UPE1 whole entry): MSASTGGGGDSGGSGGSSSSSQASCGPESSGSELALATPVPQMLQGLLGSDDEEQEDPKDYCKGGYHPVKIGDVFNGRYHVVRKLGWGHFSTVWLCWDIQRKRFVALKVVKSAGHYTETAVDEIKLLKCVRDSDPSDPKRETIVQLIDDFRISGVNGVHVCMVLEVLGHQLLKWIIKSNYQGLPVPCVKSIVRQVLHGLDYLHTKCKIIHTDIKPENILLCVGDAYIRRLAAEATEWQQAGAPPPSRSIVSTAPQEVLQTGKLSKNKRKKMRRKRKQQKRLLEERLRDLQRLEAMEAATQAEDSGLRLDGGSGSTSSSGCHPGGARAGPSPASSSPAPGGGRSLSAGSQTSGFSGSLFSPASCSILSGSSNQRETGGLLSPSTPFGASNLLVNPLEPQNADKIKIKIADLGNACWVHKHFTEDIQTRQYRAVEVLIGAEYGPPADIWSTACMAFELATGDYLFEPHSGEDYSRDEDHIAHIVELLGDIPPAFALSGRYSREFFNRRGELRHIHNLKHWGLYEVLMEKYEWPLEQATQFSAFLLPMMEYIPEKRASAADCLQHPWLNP
Text: as §1

[43] = target: T41, TIE2 (Homo sapiens, UniProt Q02763); details: 1000 nM, percent control relative to vehicle
T41 construct: purchased DiscoveRx KINOMEscan
Text: as §1

[44] = target: T42, TSSK1B (Homo sapiens, UniProt Q9BXA7); details: 1000 nM, percent control relative to vehicle
T42 construct: purchased DiscoveRx KINOMEscan
Text: as §1

[45] = target: T43, VEGFR2 (Homo sapiens, UniProt P35968); details: 1000 nM, percent control relative to vehicle
T43 construct: purchased DiscoveRx KINOMEscan
Text: as §1

[46] = 1000 nM, percent control relative to vehicle

CNC(=O)c1cccc(-c2ccc3c(N4C5CCC4COC5)nc(N4CCOC[C@@H]4C)nc3n2)c1 [MTI-31]
% Control [1]: 76%
% Control [2]: 70%
% Control [3]: 100%
% Control [4]: 78%
% Control [5]: 97%
% Control [6]: 80%
% Control [7]: 80%
% Control [8]: 100%
% Control [9]: 84%
% Control [10]: 99%
% Control [11]: 83%
% Control [12]: 80%
% Control [13]: 100%
% Control [14]: 100%
% Control [15]: 94%
% Control [16]: 100%
% Control [17]: 97%
% Control [18]: 89%
% Control [19]: 92%
% Control [20]: 100%
% Control [21]: 56%
% Control [22]: 100%
% Control [23]: 69%
% Control [24]: 81%
% Control [25]: 100%
% Control [26]: 73%
% Control [27]: 90%
% Control [28]: 100%
% Control [29]: 100%
% Control [30]: 100%
Kd [31]: > 1 µM
% Control [31, 46]: 100%
Kd [32]: > 1 µM
% Control [32, 46]: 100%
% Control [33]: 92%
% Control [34]: 100%
% Control [35]: 92%
% Control [36]: 91%
% Control [37]: 82%
% Control [38]: 100%
% Control [39]: 80%
% Control [40]: 78%
% Control [41]: 100%
% Control [42]: 90%
% Control [43]: 100%
% Control [44]: 100%
% Control [45]: 98%
